According to patent US10889825B2, “Compositions and methods thereof for down-regulation of genes following oral delivery of an RNAi molecule bioencapsulated within plant cells” (THE TRUSTEES OF THE UNIVERSITY OF PENNSYLVANIA, priority 2015, dated 2021):

Test system: Helicoverpa armigera
Assay: gossypol tolerance test, larvae on artificial diet supplemented with gossypol
Assay type: in vivo
Details: third-instar larvae
Protocol: Cotton bollworm (Helicoverpa armigera) eggs were purchased from Benzon research laboratory. See the world wide web at benzonresearch.com/insectlist.htm. They were hatched at 25° C. and all the larvae were fed with the artificial diet (Southland Products Incorporated on the world wide web at tecinfo.com/˜southland/. All dishes were kept at 25° C. on a 14-h-day/10-h-night cycle. For the gossypol tolerance experiments, third instars larvae were transferred to the artificial diet supplemented with gossypol (0-4 mg) for 4 d and the increase in weight was recorded.
Gossypol and related sesquiterpene biosynthesized in cotton are toxic to many organisms. However, most Helicoverpa insects resist gossypol because the P450 monooxygenases in the midgut of these insects permit them to tolerate the gossypol. Therefore, in order to suppress P450 gene, two step insect bioassay was conducted. In the first step, third-instar larvae of Helicoverpa armigera were fed on P450: RNAi expressed leaves for four days. Then, all these larvae were transferred to the following diet or leaves: artificial diet with 3 mg/g gossypol or without gossypol; cotton leaves with glands/glandless and wild-type tobacco leaves. Addition of gossypol in the artificial diet or in leaves affects the growth and development of the larvae (FIG. 3). […]

SMILES: Cc1cc2c(C(C)C)c(O)c(O)c(C=O)c2c(O)c1-c1c(C)cc2c(C(C)C)c(O)c(O)c(C=O)c2c1O [gossypol]
- net weight increase of larvae (higher concentrations (3-4 mg/g) of gossypol diet): 15.1 to 55.4 mg
- weight increases of larvae (low concentration gossypol diet (1-2 mg/g)): 163 to 190 mg
